Values of other authors, collected in US7815936B2, “Use of granular materials based on pyrogenically produced silicon dioxide in pharmaceutical compositions” (Evonik Degussa GmbH, priority 2001, dated 2010).

Conditions: pure active constituent in water, reached only after shaking over several days

## C#C[C@]1(O)CC[C@H]2[C@@H]3CCc4cc(O)ccc4[C@H]3CC[C@@]21C [ethinyl oestradiol]
  saturation equilibrium value: 1.1 mg/100 ml
